Measured values: EP0533241A2, “Substituted alkyl derivatives of piperazinylcamphorsulfonyl oxytocin antagonists” (MERCK & CO. INC., priority 1991, dated 1993)
pIC50: −log10 of the molar value.

Molecular target: T1, uterine OT receptors (Rattus norvegicus, UniProt P70536)
T1 sequence (P70536 1-388): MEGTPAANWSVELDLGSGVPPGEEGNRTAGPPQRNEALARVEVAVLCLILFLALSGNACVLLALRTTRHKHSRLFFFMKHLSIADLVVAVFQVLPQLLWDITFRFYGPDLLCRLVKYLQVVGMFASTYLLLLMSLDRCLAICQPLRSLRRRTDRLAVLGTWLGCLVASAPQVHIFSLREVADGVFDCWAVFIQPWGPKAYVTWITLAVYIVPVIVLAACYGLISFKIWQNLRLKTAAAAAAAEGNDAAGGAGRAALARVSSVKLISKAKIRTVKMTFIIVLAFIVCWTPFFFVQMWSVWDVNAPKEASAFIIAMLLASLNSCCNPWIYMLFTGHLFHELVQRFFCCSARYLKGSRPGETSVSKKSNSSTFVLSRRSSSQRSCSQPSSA
Assay: [3H]Oxytocin radioligand binding competition assay, crude membrane preparation of uteri from DES-treated rats
Conditions: for pIC50: 1 nM [3H]OT, 60 minutes, 22 °C, rat uterine membranes
Procedure: The high affinity binding of [^3H] Oxytocin (OT)([tyrosyl, 3,5-[^3H]OT; 30-60 Ci/mmol; New England Nuclear. Boston, MA) to uterine OT receptors was based on an assay*using a crude membrane preparation of uteri taken from diethylstilbestrol dipropionate (DES)-treated (0.3 mg/kg, ip; 18-24) rats. Competition studies were conducted at equilibrium (60 minutes; 22 ° C) using 1 NM[^3H]OT in the following assay buffer: 50 mM Tris-HCI, 5 mM MgCl2, and 0.1% BSA, pH 7.4. Nonspecific binding (10% of the total binding) was determined using 1µM unlabeled OT and the binding reaction was terminated by filtration through glass fiber filters using a cell harvester (model 7019, Skatron, Inc., Sterling, VA).

| SMILES | pIC50 | also measured |
| --- | --- | --- |
| COC(=O)C1CC2CCC1(CS(=O)(=O)N1CCN(c3ccccc3C)CC1)C2(C)C (stereo not drawn) [Example 23, 1-((7,7-DIMETHYL-2-ENDO-METHOXYCARBONYL-BICYCLO (2.2.1)HEPTAN-1-YL)METHANESULFONYL)-4-(2-METHYLPHENYL)PIPERAZINE] | 6.92 | – |
| Cc1ccccc1N1CCN(S(=O)(=O)CC23CCC(CC2C(=O)O)C3(C)C)CC1 (centres unmarked) [Example 24] | 6.59 | – |
| CC(=O)NC(CC=C1CC2CCC1(CS(=O)(=O)N1CCN(c3ccccc3C)CC1)C2(C)C)C(=O)O (centres unmarked) [Example 29, 1-((7,7-DIMETHYL-2-(3-ACETAMIDO-3-CARBOXY) PROPYLIDINE-BICYCLO(2.2.1)HEPTAN-1-YL) METHANESULFONYL)-4-(2-METHYLPHENYL)PIPERAZINE] | – | inhibition at 1 µM (read-out: inhibition at 1,000 nM): 78% |
| Cc1ccccc1N1CCN(S(=O)(=O)CC23CCC(CC2NC(=O)C(CCS(C)(=O)=O)NC(=O)Cc2c[nH]cn2)C3(C)C)CC1 (centres unmarked) [Example 37] | 8.92 | – |
| Cc1ccccc1N1CCN(S(=O)(=O)CC23CCC(CC2NC(=O)C(CCS(C)(=O)=O)N(C)C)C3(C)C)CC1 (centres unmarked) [Example 38] | 8.27 | – |
| Cc1ccccc1N1CCN(S(=O)(=O)CC23CCC(CC2N(C)C(=O)C(N)CCS(C)(=O)=O)C3(C)C)CC1 (centres unmarked) [Example 41] | 8.20 | – |
| Cc1ccccc1N1CCN(S(=O)(=O)CC23CCC(CC2N(C)C(=O)C(CCS(C)(=O)=O)N(C)C)C3(C)C)CC1 (centres unmarked) [Example 42] | 8.04 | – |
| CCOC(=O)CN1CCCC(C(=O)NC(C)CC2(O)CC3CCC2(CS(=O)(=O)N2CCN(c4ccccc4C)CC2)C3(C)C)C1 (centres unmarked) [Example 57] | – | inhibition at 100 nM (at 100 nM): 66% inhibition at 100 nM |
